Results on 3 compounds are retold here after ChEMBL document CHEMBL4602645, “Design, synthesis and evaluation of diosgenin carbamate derivatives as multitarget anti-Alzheimer's disease agents” (2020).

Assay [1] relates to SH-SY5Y. The experiment in a line: Neuroprotective activity against H2O2-induced cytotoxicity in human SH-SY5Y cells assessed as cell viability at 1 mM pretreated for 2 hrs followed by H2O2 challenge and measured after MTT assay relative to control. Format: functional. The note with it: read-out: Activity.
The test system of assay [2] is SH-SY5Y. Description: Neuroprotective activity against H2O2-induced cytotoxicity in human SH-SY5Y cells assessed as cell viability at 10 uM pretreated for 2 hrs followed by H2O2 challenge and measured after 24 hrs by MTT assay relative to control. The format is functional. Particulars: read-out: Activity.
Assay [3] has as its system RAW264.7. The experiment in a line: Antiinflammatory activity in mouse RAW264.7 cells assessed as inhibition of LPS-induced nitric oxide production at 10 uM preincubated for 2 hrs followed by LPS stimulation and measured after 24 hrs by Griess assay relative to control. Format: functional.
A further assay has as its system Astrocyte. Description: Neuroprotective activity against amyloid-beta42-induced cell death in astrocytes isolated from cortex of Sprague-Dawley rat assessed as decrease in cell viability at 5 to 100 uM pretreated for 2 hrs followed by amyloid-beta42 stimulation measured after 24 hrs by MTT assay. The format is functional, cell-based.
Assay [4] has as its system RAW264.7. Description: Antiinflammatory activity in mouse RAW264.7 cells assessed as decrease in LPS-induced IL-1beta expression by Western blot analysis. Format: functional, cell-based.
Assay [5] concerns RAW264.7. Description: Antiinflammatory activity in mouse RAW264.7 cells assessed as decrease in LPS-induced IL-6 expression by Western blot analysis. The format is functional, cell-based.
In assay [6] the test system is RAW264.7. Description: Antiinflammatory activity in mouse RAW264.7 cells assessed as decrease in LPS-induced TNFalpha expression by Western blot analysis. Format: functional, cell-based.
Assay [7] concerns SH-SY5Y. The experiment in a line: Neuroprotective activity against H2O2-induced toxicity in human SH-SY5Y cells assessed as decrease in cell viability at 0.1 to 100 uM pretreated for 2 hrs followed by H2O2 challenge and measured after 12 hrs by MTT assay. Format: functional, cell-based.
The test system of assay [8] is SH-SY5Y. Description: Neuroprotective activity in human SH-SY5Y cells assessed as inhibition of H2O2-induced shortened nerve filaments at 1 to 50 uM pretreated for 2 hrs followed by H2O2 challenge and measured after 12 hrs by fluorescence microscopy analysis. Format: functional, cell-based.
Assay [9] relates to SH-SY5Y. Description: Neuroprotective activity in human SH-SY5Y cells assessed as inhibition of H2O2-induced decreased nerve filaments at 1 to 50 uM pretreated for 2 hrs followed by H2O2 challenge and measured after 12 hrs by fluorescence microscopy analysis. Format: functional, cell-based.
Assay [10] has as its system SH-SY5Y. The experiment in a line: Effect on mitochondrial membrane potential in human SH-SY5Y cells assessed as […] in H2O2-incuded mitochondrial membrane potential loss by measuring fluorescence shift at 5 to 50 uM pretreated for 2 hrs followed by H2O2 challenge measured after 12 hrs by fluorescence microscopy analysis. The format is functional, cell-based.
The subject of assay [11] is SH-SY5Y. Description: Effect on mitochondrial ROS generation in human SH-SY5Y cells assessed as decrease in H2O2-induced mitochondrial ROS level by measuring fluorescence intensity at 5 to 50 uM incubated for 2 hrs by DCFDA probe based fluorescence microscopy analysis. The format is functional, cell-based.
Assay [12] deals with Mus musculus. Description: Neuroprotective activity in ICR mouse model of D-galactose-induced aging assessed as reduction in degeneration of neuron in hippocampal region at 6 to 30 mg/kg, ig QD measured after 8 weeks by hematoxylin-eosin staining based assay. Format: functional, organism-based.
The subject of assay [13] is Mus musculus. The experiment in a line: Improvement in learning and spatial memory in ICR mouse model of D-galactose-induced aging assessed as effect on time spent on quadrant at 6 to 30 mg/kg, ig QD measured after 8 weeks by Morris water maze test. Format: functional, organism-based.
Assay [14] has as its system Mus musculus. The experiment in a line: Neuroprotective activity in ICR mouse model of D-galactose-induced aging assessed as increase in number of […] cells at 6 to 30 mg/kg, ig QD measured after 8 weeks by hematoxylin-eosin staining based assay. Format: functional, organism-based.
Assay [15] deals with Mus musculus. The experiment in a line: Antioxidant activity in ICR mouse model of D-galactose-induced aging assessed as increase in superoxide dismutase level in serum at 6 to 30 mg/kg, ig QD measured after 8 weeks. Format: functional, organism-based.

The source made the active and inactive calls. The rule behind the calls is not given here.

Turning to `CC(=O)N[C@@H](CS)C(=O)O` [ACETYLCYSTEINE], in the assay on SH-SY5Y [1], the viability at 1000 µM amounted to 37.1%.

For `C[C@@H]1CC[C@@]2(OC1)O[C@H]1C[C@H]3[C@@H]4CC=C5C[C@@H](OC(=O)NCc6ccccc6)CC[C@]5(C)[C@H]4CC[C@]3(C)[C@H]1[C@@H]2C`, the viability at 10 µM in the assay with SH-SY5Y [2] was found to be 75.3%. In addition, in the assay with RAW264.7 [3], the inhibition at 10 µM came out at 22.7%. Besides, the outcome in the assay with Astrocyte, in the assay with SH-SY5Y [7], with SH-SY5Y [8], in the assay on SH-SY5Y [9], in the assay on SH-SY5Y [10] and in the assay on SH-SY5Y [11] was Active. Besides, the result with Mus musculus [12], in the assay on Mus musculus [13], with Mus musculus [14] and in the assay with Mus musculus [15] was Active. For the same compound, the Activity entry in the assay with RAW264.7 [4], in the assay with RAW264.7 [5] and with RAW264.7 [6] was “Dose-dependent effect” in each case.

For `CCCCNC(=O)O[C@H]1CC[C@@]2(C)C(=CC[C@H]3[C@@H]4C[C@@H]5O[C@]6(CC[C@@H](C)CO6)[C@@H](C)[C@@H]5[C@@]4(C)CC[C@@H]32)C1`, the viability at 10 µM with SH-SY5Y [2] was found to be 47.8%. In the assay on RAW264.7 [3], the inhibition at 10 µM is 11%.
